Reference: ChEMBL document CHEMBL5291721, “A preclinical secondary pharmacology resource illuminates target-adverse drug reaction associations of marketed drugs” (Nat Commun, 2023)

Legend:
[1] = molecular target: T1, Corticotropin-releasing factor receptor 2 (Homo sapiens, UniProt Q13324)
T1 sequence (Q13324 whole entry): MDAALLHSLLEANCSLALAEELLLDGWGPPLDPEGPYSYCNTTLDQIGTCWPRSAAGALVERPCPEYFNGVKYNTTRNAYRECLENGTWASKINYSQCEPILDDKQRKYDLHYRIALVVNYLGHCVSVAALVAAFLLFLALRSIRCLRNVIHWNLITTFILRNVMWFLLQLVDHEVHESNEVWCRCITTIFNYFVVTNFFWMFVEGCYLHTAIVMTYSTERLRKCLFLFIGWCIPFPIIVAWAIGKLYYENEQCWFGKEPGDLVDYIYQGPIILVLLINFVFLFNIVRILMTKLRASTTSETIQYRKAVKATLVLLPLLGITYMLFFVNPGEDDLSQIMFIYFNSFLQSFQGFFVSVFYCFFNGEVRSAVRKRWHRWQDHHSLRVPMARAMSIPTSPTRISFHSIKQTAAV

[2] = molecular target: Neurotensin receptor type 1 (Homo sapiens, UniProt P30989)
Androgen receptor [3] = molecular target: T2, Androgen receptor (Rattus norvegicus, UniProt P15207)
T2 sequence (P15207 whole entry): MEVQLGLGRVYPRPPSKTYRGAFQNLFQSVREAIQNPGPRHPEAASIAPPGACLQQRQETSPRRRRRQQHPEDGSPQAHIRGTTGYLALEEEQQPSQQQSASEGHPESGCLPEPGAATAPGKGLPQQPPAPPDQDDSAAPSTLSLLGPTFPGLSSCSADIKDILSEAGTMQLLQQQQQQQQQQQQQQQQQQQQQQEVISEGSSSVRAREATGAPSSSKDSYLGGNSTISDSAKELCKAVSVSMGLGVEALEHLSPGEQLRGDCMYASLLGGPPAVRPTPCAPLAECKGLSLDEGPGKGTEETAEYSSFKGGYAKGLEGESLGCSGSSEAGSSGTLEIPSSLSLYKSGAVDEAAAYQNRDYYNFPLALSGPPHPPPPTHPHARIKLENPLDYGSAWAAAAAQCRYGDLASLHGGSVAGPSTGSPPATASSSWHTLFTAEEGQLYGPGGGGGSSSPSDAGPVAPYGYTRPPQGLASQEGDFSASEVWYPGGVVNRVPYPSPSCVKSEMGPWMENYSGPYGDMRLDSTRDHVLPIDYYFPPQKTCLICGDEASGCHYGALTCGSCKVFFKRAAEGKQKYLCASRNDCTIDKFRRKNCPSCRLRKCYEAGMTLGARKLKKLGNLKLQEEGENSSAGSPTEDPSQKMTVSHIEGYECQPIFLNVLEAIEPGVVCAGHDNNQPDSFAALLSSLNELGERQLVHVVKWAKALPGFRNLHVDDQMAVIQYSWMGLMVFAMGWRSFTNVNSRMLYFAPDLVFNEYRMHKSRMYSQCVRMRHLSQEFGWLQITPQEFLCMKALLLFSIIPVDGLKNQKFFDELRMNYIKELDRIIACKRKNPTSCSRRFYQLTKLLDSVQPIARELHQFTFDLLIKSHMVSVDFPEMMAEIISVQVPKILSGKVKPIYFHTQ

Progesterone receptor = molecular target: T3, Progesterone receptor (Homo sapiens, UniProt P06401)
T3 sequence (P06401 whole entry): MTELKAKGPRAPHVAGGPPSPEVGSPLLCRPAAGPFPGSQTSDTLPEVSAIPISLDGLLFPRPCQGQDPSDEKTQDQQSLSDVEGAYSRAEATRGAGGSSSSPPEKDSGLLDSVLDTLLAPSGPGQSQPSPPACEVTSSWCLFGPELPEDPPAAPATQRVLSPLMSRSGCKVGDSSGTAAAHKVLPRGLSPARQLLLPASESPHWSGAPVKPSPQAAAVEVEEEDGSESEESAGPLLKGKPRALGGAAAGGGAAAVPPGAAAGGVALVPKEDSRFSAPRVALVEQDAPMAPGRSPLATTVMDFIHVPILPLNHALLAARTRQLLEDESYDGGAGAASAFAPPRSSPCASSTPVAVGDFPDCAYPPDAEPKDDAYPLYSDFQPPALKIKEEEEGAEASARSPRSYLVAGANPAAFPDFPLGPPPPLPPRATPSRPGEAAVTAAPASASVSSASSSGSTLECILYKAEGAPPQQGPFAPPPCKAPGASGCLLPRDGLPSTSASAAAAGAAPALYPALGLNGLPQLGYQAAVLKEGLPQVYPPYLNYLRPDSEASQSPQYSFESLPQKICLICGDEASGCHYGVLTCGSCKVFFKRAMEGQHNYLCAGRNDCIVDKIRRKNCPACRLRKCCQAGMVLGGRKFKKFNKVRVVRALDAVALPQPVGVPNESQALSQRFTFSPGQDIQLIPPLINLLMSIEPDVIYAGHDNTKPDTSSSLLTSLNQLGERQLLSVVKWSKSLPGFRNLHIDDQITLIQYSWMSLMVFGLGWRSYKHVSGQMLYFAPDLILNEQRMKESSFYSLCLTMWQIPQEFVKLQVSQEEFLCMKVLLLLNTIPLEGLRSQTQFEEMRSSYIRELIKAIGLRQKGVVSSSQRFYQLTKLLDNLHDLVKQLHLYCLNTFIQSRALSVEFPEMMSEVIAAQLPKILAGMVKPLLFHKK

Cannabinoid receptor 1 = Cannabinoid receptor 1 (Homo sapiens, UniProt P21554); assay type: functional
[4] = molecular target: T4, Alpha-1A adrenergic receptor (Homo sapiens, UniProt P35348)
T4 sequence (P35348 whole entry): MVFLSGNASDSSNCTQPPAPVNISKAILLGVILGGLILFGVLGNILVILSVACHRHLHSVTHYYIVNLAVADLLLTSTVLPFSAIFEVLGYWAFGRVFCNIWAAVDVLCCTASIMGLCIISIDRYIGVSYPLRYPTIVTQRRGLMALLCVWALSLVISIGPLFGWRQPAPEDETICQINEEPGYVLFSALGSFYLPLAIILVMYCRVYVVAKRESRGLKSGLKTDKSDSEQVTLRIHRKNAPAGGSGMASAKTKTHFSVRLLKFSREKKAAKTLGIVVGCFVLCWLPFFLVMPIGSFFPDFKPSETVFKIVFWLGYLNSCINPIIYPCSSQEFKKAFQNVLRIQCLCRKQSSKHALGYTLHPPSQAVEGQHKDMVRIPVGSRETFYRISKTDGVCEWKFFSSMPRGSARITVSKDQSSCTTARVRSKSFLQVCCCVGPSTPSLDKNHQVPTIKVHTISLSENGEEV

D(1A) dopamine receptor = D(1A) dopamine receptor (Homo sapiens, UniProt P21728)
Androgen receptor [5] = molecular target: T2, Androgen receptor; assay type: functional
Androgen receptor [6] = molecular target: T2, Androgen receptor; assay type: functional; remark: listed apart in the source
Also: assay procedure not described here.

Sequence of Neurotensin receptor type 1 (P30989 whole entry): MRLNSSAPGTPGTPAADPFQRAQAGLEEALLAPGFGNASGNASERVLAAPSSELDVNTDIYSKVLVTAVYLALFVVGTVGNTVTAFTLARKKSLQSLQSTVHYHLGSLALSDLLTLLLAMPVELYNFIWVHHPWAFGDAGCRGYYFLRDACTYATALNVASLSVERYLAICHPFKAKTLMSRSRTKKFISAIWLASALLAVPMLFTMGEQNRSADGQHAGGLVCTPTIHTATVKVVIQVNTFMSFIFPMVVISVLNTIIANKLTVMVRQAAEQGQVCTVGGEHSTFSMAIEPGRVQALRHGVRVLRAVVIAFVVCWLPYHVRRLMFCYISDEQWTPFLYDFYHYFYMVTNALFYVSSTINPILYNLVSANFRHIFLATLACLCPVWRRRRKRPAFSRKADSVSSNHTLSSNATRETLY
Sequence of D(1A) dopamine receptor (P21728 whole entry): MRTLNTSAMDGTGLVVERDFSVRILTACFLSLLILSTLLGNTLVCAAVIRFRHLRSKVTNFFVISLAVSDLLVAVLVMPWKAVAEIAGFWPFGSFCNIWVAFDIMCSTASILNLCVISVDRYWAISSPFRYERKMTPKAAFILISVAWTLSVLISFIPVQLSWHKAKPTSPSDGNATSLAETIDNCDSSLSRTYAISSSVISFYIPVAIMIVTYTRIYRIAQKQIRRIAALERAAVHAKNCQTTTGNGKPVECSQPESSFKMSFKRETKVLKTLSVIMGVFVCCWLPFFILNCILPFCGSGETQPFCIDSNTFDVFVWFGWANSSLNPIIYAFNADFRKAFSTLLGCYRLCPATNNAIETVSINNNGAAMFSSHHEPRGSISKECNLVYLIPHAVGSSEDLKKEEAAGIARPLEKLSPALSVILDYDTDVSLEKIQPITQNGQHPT
Sequence of Cannabinoid receptor 1 (P21554 whole entry): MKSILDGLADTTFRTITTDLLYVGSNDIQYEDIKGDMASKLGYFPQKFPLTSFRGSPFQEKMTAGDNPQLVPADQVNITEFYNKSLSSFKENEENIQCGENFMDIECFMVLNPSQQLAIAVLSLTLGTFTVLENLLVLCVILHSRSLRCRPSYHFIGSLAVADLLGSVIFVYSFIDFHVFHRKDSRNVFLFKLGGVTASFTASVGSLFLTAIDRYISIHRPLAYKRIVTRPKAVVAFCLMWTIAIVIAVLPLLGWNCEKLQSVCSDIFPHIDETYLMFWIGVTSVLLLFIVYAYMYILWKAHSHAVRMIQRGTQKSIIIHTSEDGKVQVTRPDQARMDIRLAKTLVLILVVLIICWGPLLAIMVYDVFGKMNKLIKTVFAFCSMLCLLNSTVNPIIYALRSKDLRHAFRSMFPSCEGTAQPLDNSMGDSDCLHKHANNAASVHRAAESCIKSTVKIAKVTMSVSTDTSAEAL

What does the source list for C[C@]12C=CC(=O)C=C1CC[C@@H]1[C@@H]2[C@@H](O)C[C@@]2(C)[C@H]1CC[C@]2(O)C(=O)CO [PREDNISOLONE]?
AC50 [1]: > 30 µM; AC50 [2]: > 30 µM

Which AC50 (Androgen receptor [3]) does the source give for CCC(=O)c1ccc2c(c1)N(CC(C)N(C)C)c1ccccc1S2 (stereo not drawn) [PROPIOMAZINE] here?
The AC50 was > 30 µM.

Which AC50 (Progesterone receptor) does the source give for COc1cccc2c1C(=O)c1c(O)c3c(c(O)c1C2=O)C[C@@](O)(C(=O)CO)C[C@@H]3O[C@H]1C[C@H](N)[C@H](O)[C@H](C)O1 [DOXORUBICIN] here?
Its AC50 is 1.7 µM.

For Cc1ccc(O)c([C@H](CCN(C(C)C)C(C)C)c2ccccc2)c1 [TOLTERODINE], which AC50 (Cannabinoid receptor 1) is on record?
The AC50 was > 10 µM.

And the AC50 [4]?
The AC50 was > 10 µM.

And the AC50 (D(1A) dopamine receptor)?
Its AC50 is > 10 µM.

Which results are given for N=C(N)NC(=O)c1nc(Cl)c(N)nc1N [AMILORIDE]?
AC50 (Progesterone receptor): > 30 µM; AC50 (Cannabinoid receptor 1): > 10 µM; AC50 [1]: > 30 µM; AC50 [4]: > 10 µM; AC50 (D(1A) dopamine receptor): > 10 µM; AC50 [2]: > 30 µM

C[C@]12C=CC(=O)C=C1C(Cl)=C[C@@H]1[C@@H]2[C@@H](O)C[C@@]2(C)[C@H]1CC[C@]2(O)C(=O)CO [CLOPREDNOL] was tested. Which AC50 (Androgen receptor [5]) did it give?
The AC50 was > 30 µM.

What about the AC50 (Androgen receptor [6]) of the same compound?
The AC50 was > 30 µM.

With CN(C)[C@@H]1C(O)=C(C(=O)NCN2CCCC2)C(=O)[C@@]2(O)C(O)=C3C(=O)c4c(O)cccc4[C@@](C)(O)[C@H]3C[C@@H]12 [ROLITETRACYCLINE] as the compound, how does the AC50 (Androgen receptor [3]) read?
The AC50 was 4.35 µM.

CC(C)(Oc1ccc(Cl)cc1)C(=O)OCCOC(=O)c1cccnc1 [ETOFIBRATE] was tested. Which AC50 (Androgen receptor [5]) did it give?
The AC50 was > 30 µM.

And the AC50 (Androgen receptor [6])?
Its AC50 is > 30 µM.
